Measured values as given in US8044198B2, “Sirtuin modulating compounds” (Sirtris Pharmaceuticals, Inc., priority 2005, dated 2011).
Like-named read-outs stand apart in the source and are kept apart here.

Biological target: T1, SIRT1 (Homo sapiens, UniProt Q96EB6)
T1 sequence (Q96EB6 1-747): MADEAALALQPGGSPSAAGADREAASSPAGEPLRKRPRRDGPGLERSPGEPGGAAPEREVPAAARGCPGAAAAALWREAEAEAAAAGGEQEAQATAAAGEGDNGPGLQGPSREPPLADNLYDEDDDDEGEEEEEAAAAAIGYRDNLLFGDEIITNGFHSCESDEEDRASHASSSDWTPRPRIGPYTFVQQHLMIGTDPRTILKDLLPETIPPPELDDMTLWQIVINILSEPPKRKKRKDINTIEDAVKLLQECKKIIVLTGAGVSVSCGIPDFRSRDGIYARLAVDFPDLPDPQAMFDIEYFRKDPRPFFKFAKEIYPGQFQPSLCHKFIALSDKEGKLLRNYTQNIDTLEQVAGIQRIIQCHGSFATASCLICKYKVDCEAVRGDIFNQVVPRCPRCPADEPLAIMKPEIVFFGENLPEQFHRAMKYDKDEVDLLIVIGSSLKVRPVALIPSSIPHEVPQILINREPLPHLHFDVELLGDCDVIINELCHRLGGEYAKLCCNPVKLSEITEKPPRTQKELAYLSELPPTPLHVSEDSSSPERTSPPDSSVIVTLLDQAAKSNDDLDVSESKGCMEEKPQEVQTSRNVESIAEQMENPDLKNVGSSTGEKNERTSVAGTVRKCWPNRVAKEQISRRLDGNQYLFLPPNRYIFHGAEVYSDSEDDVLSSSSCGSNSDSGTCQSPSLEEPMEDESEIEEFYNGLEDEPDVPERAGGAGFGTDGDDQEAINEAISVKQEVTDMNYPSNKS
Assay: SIRT1 mass spectrometry (MS) based deacetylation assay; for FOLD ACT. MS: test concentration or dose not given here
Format: biochemical
Conditions: for FOLD ACT. MS: fold activation of SIRT1 as determined by MS

[1] = SIRT1 activation, mass spectrometry assay, read-out: ED50 MS ASSAY

Row | Structure (SMILES) | EC50 [1] [µM] | FOLD ACT. MS | EC50 [µM]
1 | COc1ccc(C(=O)Nc2ccc(-c3nc4cccnc4[nH]3)cc2)c(OC)c1OC [Compound 148] | > 150 |  | 
2 | COc1cc(C)ccc1C(=O)Nc1ccc(-c2nc3cccnc3[nH]2)cc1 [Compound 149] | < 5 | B (B (Fold Activation <250%)) | 
3 | COc1ccc(C(=O)Nc2ccc(-c3nc4cccnc4[nH]3)cc2)cc1OC [Compound 150] | < 5 | B (B (Fold Activation <250%)) | 
4 | COc1ccc(C(=O)Nc2ccc(-c3nc4cccnc4[nH]3)cc2)c(OC)c1 [Compound 151] | > 150 |  | 
5 | COc1ccc(C(=O)Nc2ccc(-c3nc4ncccc4s3)cc2)c(OC)c1 [Compound 152] | > 150 |  | 
6 | COc1ccc(C(=O)Nc2cc(C(=O)NCCN(C)C)cc(-c3nc4ncccc4o3)c2)cc1OC [Compound 153] | 5 to 50 | B (B (Fold Activation <250%)) | 
7 | CN(C)CCNC(=O)c1cc(NC(=O)c2cccc(N(C)C)c2)cc(-c2nc3ncccc3o2)c1 [Compound 154] | 101 to 150 | A (A (Fold activation >250%)) | 
8 | COc1ccc(C(=O)Nc2cc(C(=O)NCCN(C)C)cc(-c3nc4ncccc4o3)c2)c(OC)c1 [Compound 155] | 5 to 50 | B (B (Fold Activation <250%)) | 
9 | COc1ccc(C(=O)Nc2cc(CN(C)C)cc(-c3nc4ncccc4o3)c2)cc1OC [Compound 156] | 5 to 50 | B (B (Fold Activation <250%)) | 
10 | CN(C)Cc1cc(NC(=O)c2cccc(N(C)C)c2)cc(-c2nc3ncccc3o2)c1 [Compound 157] | > 150 | B (B (Fold Activation <250%)) | 
11 | COc1ccc(C(=O)Nc2cc(CN(C)C)cc(-c3nc4ncccc4o3)c2)c(OC)c1 [Compound 158] | 5 to 50 | B (B (Fold Activation <250%)) | 
12 | COc1ccc(C(=O)Nc2cc(CN3CCNCC3)cc(-c3nc4ncccc4o3)c2)cc1OC [Compound 159] | 5 to 50 | B (B (Fold Activation <250%)) | 
13 | CN(C)c1cccc(C(=O)Nc2cc(CN3CCNCC3)cc(-c3nc4ncccc4o3)c2)c1 [Compound 160] | 51 to 100 | A (A (Fold activation >250%)) | 
14 | COc1ccc(C(=O)Nc2cc(CN3CCNCC3)cc(-c3nc4ncccc4o3)c2)c(OC)c1 [Compound 161] | 5 to 50 | A (A (Fold activation >250%)) | 
15 | COc1ccc(C(=O)Nc2ccccc2-c2nc3ccncc3s2)cc1OC [Compound 162] | < 5 | B (B (Fold Activation <250%)) | 
16 | COc1cc(C(=O)Nc2ccccc2-c2nc3ccncc3s2)cc(OC)c1OC [Compound 163] | < 5 | B (B (Fold Activation <250%)) | 
17 | CN(C)Cc1ccc2oc(-c3cccc(NC(=O)c4cccc(N(C)C)c4)c3)nc2n1 [Compound 165] | > 150 | A (A (Fold activation >250%)) | 
18 | CN(C)c1cccc(C(=O)Nc2cccc(-c3nc4nc(CN5CCNCC5)ccc4o3)c2)c1 [Compound 166, 3-dimethylamino-N-[3-(5-piperazin-1-ylmethyl-oxazolo[4,5-b]pyridin-2-yl)-phenyl]-benzamide] | 5 to 50 | B (B (Fold Activation <250%)) | 
19 | Cc1ccc2oc(-c3cccc(NC(=O)c4cccc(N(C)C)c4)c3)nc2n1 [Compound 167] | 5 to 50 | B (B (Fold Activation <250%)) | 
20 | CN(C(=O)Nc1ccccc1-c1nc2ccccc2[nH]1)c1ccccc1 [Compound 169] | < 5 | B (B (Fold Activation <250%)) | 
21 | COc1cc(C(=O)Nc2cc(CN(C)C)cc(-c3nc4ccncc4s3)c2)cc(OC)c1OC [Compound 174] | 51 to 100 | A (A (Fold activation >250%)) | 
22 | COc1ccc(C(=O)Nc2ccccc2-n2cccc2)cc1OC [Compound 175] | 51 to 100 | B (B (Fold Activation <250%)) | 

Row | Structure (SMILES) | EC50 [1] [µM] | FOLD ACT. MS | EC50 [µM]
23 | COc1cc(C(=O)Nc2ccccc2-n2cccn2)cc(OC)c1OC [Compound 176] | 51 to 100 | B (B (Fold Activation <250%)) | 
24 | COc1ccc(C(=O)Nc2ccccc2-n2cccn2)cc1OC [Compound 177] | > 150 | B (B (Fold Activation <250%)) | 
25 | COc1ccc(C(=O)Nc2ccccc2-c2cn3cc(CN(C)C)sc3n2)cc1OC [Compound 178] | 5 to 50 | A (A (Fold activation >250%)) | 
26 | COc1cc(C(=O)Nc2ccccc2-c2cn3cc(CN(C)C)sc3n2)cc(OC)c1OC [Compound 179] | < 5 | A (A (Fold activation >250%)) | 
27 | CN(C)c1cccc(C(=O)Nc2ccc(-c3nc4cccnc4[nH]3)cc2)c1 [Compound 180] | 5 to 50 | B (B (Fold Activation <250%)) | 
28 | COc1ccc(C(=O)Nc2cccc(-c3nc4cccnc4[nH]3)c2)c(OC)c1OC [Compound 181] | < 5 | A (A (Fold activation >250%)) | 
29 | COc1cc(C)ccc1C(=O)Nc1cccc(-c2nc3cccnc3[nH]2)c1 [Compound 182] | < 5 | A (A (Fold activation >250%)) | 
30 | CN(C)c1cccc(C(=O)Nc2cccc(-c3nc4ncccc4[nH]3)c2)c1 [Compound 183] | 5 to 50 | A (A (Fold activation >250%)) | 
31 | COc1ccc(C(=O)Nc2cccc(-c3nc4ncccc4[nH]3)c2)c(OC)c1 [Compound 184] | < 5 | B (B (Fold Activation <250%)) | 
32 | COc1ccc(C(=O)Nc2cccc(-c3nc4cccnc4[nH]3)c2)cc1OC [Compound 185] | < 5 | A (A (Fold activation >250%)) | 
33 | COc1cc(C)ccc1C(=O)Nc1ccc(-c2cc3cccnc3o2)cc1 [Compound 187] | 5 to 50 | B (B (Fold Activation <250%)) | 
34 | COc1ccc(C(=O)Nc2ccc(-c3cc4cccnc4o3)cc2)c(OC)c1 [Compound 190] | < 5 | B (B (Fold Activation <250%)) | 
35 | COc1ccc(C(=O)Nc2cccc(-c3cc4cccnc4o3)c2)c(OC)c1 [Compound 191] | < 5 | B (B (Fold Activation <250%)) | 
36 | COc1ccc(C(=O)Nc2cccc(-c3cc4cccnc4o3)c2)cc1OC [Compound 192] | 5 to 50 | B (B (Fold Activation <250%)) | 
37 | CN(C)c1cccc(C(=O)Nc2ccc(-c3nc4ncccc4s3)cc2)c1 [Compound 196] | 5 to 50 | B (B (Fold Activation <250%)) | 
38 | COc1ccc(C(=O)Nc2ccc(-c3nc4ncccc4s3)cc2)cc1OC [Compound 197] | < 5 | B (B (Fold Activation <250%)) | 
39 | COc1ccc(C(=O)Nc2cccc(-c3nc4ncccc4s3)c2)c(OC)c1OC [Compound 198] | 5 to 50 | B (B (Fold Activation <250%)) | 
40 | COc1cc(C)ccc1C(=O)Nc1cccc(-c2nc3ncccc3s2)c1 [Compound 199] | < 5 | B (B (Fold Activation <250%)) | 
41 | CN(C)c1cccc(C(=O)Nc2cccc(-c3nc4ncccc4s3)c2)c1 [Compound 200] |  | B (B (Fold Activation <250%)) | < 5
42 | COc1ccc(C(=O)Nc2cccc(-c3nc4ncccc4s3)c2)cc1OC [Compound 201] | 5 to 50 | B (B (Fold Activation <250%)) | 
43 | COc1ccc(C(=O)Nc2cccc(-c3nc4ncccc4s3)c2)c(OC)c1 [Compound 202] | < 5 | B (B (Fold Activation <250%)) | 
